The values that follow are results of earlier work, collected in US10206404B2, “Disinfectant” (Saban Ventures Pty Limited, priority 2012, dated 2019).

For this data set the following is noted: unbuffered peroxyacetic acid, regardless of how it is produced.

For the molecule `CC(=O)OO` [peroxyacetic acid], the pH entry was “around 2.8”.
